In patent US9676715B2, “Bis-indolic derivatives, a process for preparing the same and their uses as a drug” (UNIVERSITE JOSEPH FOURIER, priority 2011, dated 2017):
Converted amounts (≈) assume the structure as drawn.

Tests used:
E. faecalis ATCC 29212 = assay: MIC, microdilution method (9.1); assay type: cell-based, Enterococcus faecalis; conditions: Enterococcus faecalis, ATCC29212, 18 h, read-out: MIC
Experimental: (§1) The microdilution method recommended by the Clinical and Laboratory Standard Institute [M07-A8, Vol. 29, No. 2] was used. The activity of indolic compounds was tested against 29 bacterial strains belonging to 17 different species and 12 different genera (Staphylococcus, Streptococcus, Enterococcus, Listeria, Bacillus, Haemophilus, Escherichia, Klebsiella, Enterobacter, Serratia, Pseudomonas, and Acinetobacter). Bacterial inocula were prepared in Mueller Hinton broth (MH2, bioMérieux, Marcy L'Etoile, France), supplemented with 10% sheep blood for fastidious species (i.e., Streptococcus pneumoniae and Haemophilus influenzae). They were dispensed in 96 well microtiter plates (5×10^5 CFU/ml of final inoculum). Indolic compounds were added to the wells as to obtain two-fold serial concentrations (0.50-128 mg/L of final concentrations). Plates were incubated at 37° C. in ambient air, or at 37° C. in 5% CO2 enriched atmosphere for fastidious species. […] Drug-free cultures served as growth controls. Cultures receiving gentamicin, ciprofloxacin or cefotaxime served as positive controls.

[1] = system: Bacillus subtilis CIP 5262; assay: MIC, microdilution method (9.1); assay type: cell-based; conditions: CIP5262, 18 h, read-out: MIC
Experimental: as §1

[2] = system: Klebsiella pneumoniae API ATCC 35657; assay: MIC, microdilution method (9.1); assay type: cell-based; conditions: ATCC35657, 18 h, read-out: MIC
Experimental: as §1

[3] = system: Escherichia coli ATCC 25922; assay: MIC, microdilution method (9.1); assay type: cell-based; conditions: ATCC25922, 18 h
Experimental: as §1

[4] = system: Enterobacter cloacae ATCC13047; assay: MIC, microdilution method (9.1); assay type: cell-based; conditions: 18 h
Experimental: as §1

[5] = system: Haemophilus influenzae ATCC 49766; assay: MIC, microdilution method (9.1); assay type: cell-based; conditions: ATCC49766; Haemophilus influenzae ATCC 49766; 10% sheep blood, 5% CO2; 18 h; read-out: MIC
Experimental: as §1

[6] = system: Listeria innocua CIP 80.11; assay: MIC, microdilution method (9.1); assay type: cell-based; conditions: CIP80, 18 h, read-out: MIC
Experimental: as §1

[7] = system: Acinetobacter baumanii ATCC 19606; assay: MIC, microdilution method (9.1); assay type: cell-based; conditions: Acinetobacter baumannii, ATCC19606, 18 h, read-out: MIC
Experimental: as §1

[8] = system: Serratia marcescens CIP 103551; assay: MIC, microdilution method (9.1); assay type: cell-based; conditions: CIP103551, 18 h
Experimental: as §1

[9] = system: Pseudomonas aeruginosa CIP 5933; assay: MIC, microdilution method (9.1); assay type: cell-based; conditions: CIP5933, 18 h, read-out: MIC
Experimental: as §1

S. pneumoniae ATCC 49619 = assay: MIC, microdilution method (9.1); assay type: cell-based; conditions: Streptococcus pneumoniae, ATCC49619, 10% sheep blood, 5% CO2, 18 h
Experimental: as §1

[10] = system: S. epidermidis ATCC 12228; assay: MIC, microdilution method (9.1); assay type: cell-based, Staphylococcus epidermidis; conditions: Staphylococcus epidermidis, ATCC12228, read after 18 h, read-out: MIC
Experimental: as §1

[11] = system: S. epidermidis CIP 103627; assay: MIC, microdilution method (9.1); assay type: cell-based, Staphylococcus epidermidis; conditions: Staphylococcus epidermidis, CIP103627, read after 18 h, read-out: MIC
Experimental: as §1

S. epidermidis CIP 81.55 = assay: MIC, microdilution method (9.1); assay type: cell-based, Staphylococcus epidermidis; conditions: Staphylococcus epidermidis, CIP81, read after 18 h, read-out: MIC
Experimental: as §1

[12] = system: S. pyogenes (group A) CIP 104226; assay: MIC, microdilution method (9.1); assay type: cell-based, Streptococcus pyogenes; conditions: Streptococcus pyogenes, CIP104226, 18 h, read-out: MIC
Experimental: as §1

[13] = system: KB (human mouth carcinoma); assay: In vitro cytotoxicity; assay type: cell-based; conditions: read-out: % of cellular growth inhibition; for inhibition at 10 µM: 10^−5 M; for inhibition at 1 µM: 10^−6 M
Experimental: (§2) In vitro cytotoxicity was assayed on three cell lines—KB (human mouth carcinoma), MCR5 (human lung fibroblast) and HCT116 (human colon tumor). Results are presented in table IV as % of cellular growth inhibition in presence of 10^−5 M and 10^−6 M of the tested bis-indolic derivatives.

[14] = system: HCT116 (human colon tumor); assay: In vitro cytotoxicity; assay type: cell-based; conditions: read-out: % of cellular growth inhibition; for inhibition at 10 µM: HCT-116, 10^−5 M; for inhibition at 1 µM: HCT-116, 10^−6 M
Experimental: as §2

[15] = system: MRC5 (human lung fibroblast); assay: In vitro cytotoxicity; assay type: cell-based; conditions: read-out: % of cellular growth inhibition; for inhibition at 10 µM: 10^−5 M; for inhibition at 1 µM: 10^−6 M
Experimental: as §2

S. mitis CIP 103335 = assay: MIC, microdilution method (9.1); assay type: cell-based, Streptococcus mitis; conditions: Streptococcus mitis, CIP103335, 18 h, read-out: MIC
Experimental: as §1

[16] = system: S. agalactiae (group B) ATCC 12400; assay: MIC, microdilution method (9.1); assay type: cell-based, Streptococcus agalactiae; conditions: Streptococcus agalactiae, ATCC12400, 18 h, read-out: MIC
Experimental: as §1

S. pneumoniae ATCC 6303 = assay: MIC, microdilution method (9.1); assay type: cell-based, Streptococcus pneumoniae; conditions: Streptococcus pneumoniae, ATCC6303, 10% sheep blood, 5% CO2, 18 h, read-out: MIC
Experimental: as §1

E. faecium CIP 54.32 = assay: MIC, microdilution method (9.1); assay type: cell-based, Enterococcus faecium; conditions: Enterococcus faecium, CIP54, 18 h, read-out: MIC
Experimental: as §1

[17] = system: HCT116 (human colon tumor); assay: In vitro cytotoxicity; assay type: cell-based; conditions: HCT-116, HCT116, from 100 μM to 0.005 μM in DMSO, duplicate
S. aureus ATCC 25923 = assay: MIC, microdilution method (9.1); assay type: cell-based, Staphylococcus aureus; conditions: Staphylococcus aureus, ATCC25923, read after 18 h, read-out: MIC
Experimental: as §1

S. aureus ATCC 29213 = assay: MIC, microdilution method (9.1); assay type: cell-based, Staphylococcus aureus; conditions: Staphylococcus aureus, ATCC29213, read after 18 h, read-out: MIC
Experimental: as §1

[18] = system: S. aureus CIP 65.25 (MRSA); assay: MIC, microdilution method (9.1); assay type: cell-based, Staphylococcus aureus; conditions: Staphylococcus aureus, read after 18 h, read-out: MIC
Experimental: as §1

S. aureus CIP 103428 = assay: MIC, microdilution method (9.1); assay type: cell-based, Staphylococcus aureus; conditions: Staphylococcus aureus, CIP103428, read after 18 h, read-out: MIC
Experimental: as §1

S. aureus CIP 65.6 = assay: MIC, microdilution method (9.1); assay type: cell-based, Staphylococcus aureus; conditions: Staphylococcus aureus, CIP65, read after 18 h, read-out: MIC
Experimental: as §1

[19] = system: S. aureus ATCC 106414 (VISA); assay: MIC, microdilution method (9.1); assay type: cell-based, Staphylococcus aureus; conditions: Staphylococcus aureus, read after 18 h, read-out: MIC
Experimental: as §1

S. aureus ATCC 9144 = assay: MIC, microdilution method (9.1); assay type: cell-based, Staphylococcus aureus; conditions: Staphylococcus aureus, ATCC9144, read after 18 h, read-out: MIC
Experimental: as §1

[20] = system: S. aureus ATCC 33592 (MRSA); assay: MIC, microdilution method (9.1); assay type: cell-based, Staphylococcus aureus; conditions: Staphylococcus aureus, read after 18 h, read-out: MIC
Experimental: as §1

S. aureus SA-1199B = assay: MIC, microdilution method (9.1); assay type: cell-based, Staphylococcus aureus; conditions: Staphylococcus aureus, SA1199B, 18 h
Experimental: as §1

S. aureus ATCC 6538 = assay: MIC, microdilution method (9.1); assay type: cell-based, Staphylococcus aureus; conditions: Staphylococcus aureus, ATCC6538, read after 18 h, read-out: MIC
Experimental: as §1

SMILES | MIC (E. faecalis ATCC 29212) [µg/mL] | MIC [1] [µg/mL] | MIC [2] [µg/mL] | MIC [3] [µg/mL] | MIC [4] [µg/mL] | MIC [5] [µg/mL] | MIC [6] [µg/mL] | MIC [7] [µg/mL] | MIC [8] [µg/mL] | MIC [9] [µg/mL] | MIC (S. pneumoniae ATCC 49619) [µg/mL] | MIC [10] [µg/mL] | MIC [11] [µg/mL] | MIC (S. epidermidis CIP 81.55) [µg/mL] | MIC [12] [µg/mL] | inhibition at 10 µM [13] [%] | inhibition at 1 µM [13] [%] | inhibition at 10 µM [14] [%] | inhibition at 1 µM [14] [%] | inhibition at 10 µM [15] [%] | also measured
CC(C)(C)OC(=O)NCC(NC(=O)c1c[nH]c2ccc(Br)cc12)c1c[nH]c2cc(Br)ccc12 (stereo not drawn) [Compound 3h, tert-Butyl (2-(6-bromo-1H-indol-3-yl)-2-(5-bromo-1H-indolyl-3-carboxamido)ethyl)carbamate] | > 128 | 32 (≈ 55.5 µM) | > 128 | > 128 | > 128 | 16 (≈ 27.8 µM) | 32 (≈ 55.5 µM) | > 128 | > 128 | > 128 | 32 (≈ 55.5 µM) | 1 (≈ 1.74 µM) | 2 (≈ 3.47 µM) | 1 (≈ 1.74 µM) | 32 (≈ 55.5 µM) | 100 ± 1 | 0 | 100 ± 3 | 0 | 92 ± 1 | inhibition at 1 µM [15]: 0%; MIC (S. mitis CIP 103335): 32 µg/mL (≈ 55.5 µM); MIC [16]: 32 µg/mL (≈ 55.5 µM); MIC (S. pneumoniae ATCC 6303): 32 µg/mL (≈ 55.5 µM); MIC (E. faecium CIP 54.32): 32 µg/mL (≈ 55.5 µM); IC50 ([17]; first value): 3.33 µM; IC50 ([17]; second value): 4.11 µM; MIC (S. aureus ATCC 25923): 1 µg/mL (≈ 1.74 µM); MIC (S. aureus ATCC 29213): 1 µg/mL (≈ 1.74 µM); MIC [18]: 1 µg/mL (≈ 1.74 µM); MIC (S. aureus CIP 103428): 2 µg/mL (≈ 3.47 µM); MIC (S. aureus CIP 65.6): 2 µg/mL (≈ 3.47 µM); MIC [19]: 1 µg/mL (≈ 1.74 µM); MIC (S. aureus ATCC 9144): 1 µg/mL (≈ 1.74 µM); MIC [20]: 2 µg/mL (≈ 3.47 µM); MIC (S. aureus SA-1199B): 2 µg/mL (≈ 3.47 µM); MIC (S. aureus ATCC 6538): 1 µg/mL (≈ 1.74 µM)
CC(C)(C)OC(=O)NCC(NC(=O)c1c[nH]c2cc(Cl)ccc12)c1c[nH]c2ccc(Cl)cc12 (stereo not drawn) [Compound 6b, tert-Butyl 2-(5-chloro-1H-indol-3-yl)-2-(6-chloro-1H-indole-3-carboxamido)ethyl carbamate] | > 128 | 64 (≈ 131 µM) | > 128 | > 128 | > 128 | > 128 | > 128 | > 128 | > 128 | > 128 | 64 (≈ 131 µM) | 4 (≈ 8.21 µM) | 8 (≈ 16.4 µM) | 4 (≈ 8.21 µM) | 128 (≈ 263 µM) | 92 ± 4 | 2 | 97 ± 6 | 0 | 99 ± 1 | inhibition at 1 µM [15]: 0%; MIC (S. mitis CIP 103335): 128 µg/mL (≈ 263 µM); MIC [16]: 128 µg/mL (≈ 263 µM); MIC (S. pneumoniae ATCC 6303): 64 µg/mL (≈ 131 µM); MIC (E. faecium CIP 54.32): > 128 µg/mL; MIC (S. aureus ATCC 25923): 4 µg/mL (≈ 8.21 µM); MIC (S. aureus ATCC 29213): 4 µg/mL (≈ 8.21 µM); MIC [18]: 4 µg/mL (≈ 8.21 µM); MIC (S. aureus CIP 103428): 4 µg/mL (≈ 8.21 µM); MIC (S. aureus CIP 65.6): 4 µg/mL (≈ 8.21 µM); MIC [19]: 4 µg/mL (≈ 8.21 µM); MIC (S. aureus ATCC 9144): 4 µg/mL (≈ 8.21 µM); MIC [20]: 4 µg/mL (≈ 8.21 µM); MIC (S. aureus SA-1199B): 4 µg/mL (≈ 8.21 µM); MIC (S. aureus ATCC 6538): 4 µg/mL (≈ 8.21 µM)
